The target of the assay is SHP2 (Homo sapiens (Human), UniProt Q06124). Briefly: SHP2 Allosteric Inhibition Assay. The format is biochemical. Particulars: 0.5 nM SHP2 activated with 0.5 μM peptide IRS1_pY1172(dPEG8)pY1222, surrogate substrate DiFMUP, fluorescence. An excerpt:
SHP2 Allosteric Inhibition Assay SHP2 is allosterically activated through binding of bis-tyrosyl-phorphorylated peptides to its Src Homology 2 (SH2) domains. The latter activation step leads to the release of the auto-inhibitory interface of SHP2, which in turn renders the SHP2 protein tyrosine phosphatase (PTP) active and available for substrate recognition and reaction catalysis. The catalytic activity of SHP2 was monitored using the surrogate substrate DiFMUP in a prompt fluorescence assay format. […] After 30-60 minutes incubation at 25° C., the surrogate substrate DiFMUP (Invitrogen, cat# D6567) was added to the reaction and incubated at 25° C. for 30 minutes. […] The inhibitor dose response curves were analyzed using normalized IC50 regression curve fitting with control based normalization.
Sequence of SHP2 (Q06124 whole entry): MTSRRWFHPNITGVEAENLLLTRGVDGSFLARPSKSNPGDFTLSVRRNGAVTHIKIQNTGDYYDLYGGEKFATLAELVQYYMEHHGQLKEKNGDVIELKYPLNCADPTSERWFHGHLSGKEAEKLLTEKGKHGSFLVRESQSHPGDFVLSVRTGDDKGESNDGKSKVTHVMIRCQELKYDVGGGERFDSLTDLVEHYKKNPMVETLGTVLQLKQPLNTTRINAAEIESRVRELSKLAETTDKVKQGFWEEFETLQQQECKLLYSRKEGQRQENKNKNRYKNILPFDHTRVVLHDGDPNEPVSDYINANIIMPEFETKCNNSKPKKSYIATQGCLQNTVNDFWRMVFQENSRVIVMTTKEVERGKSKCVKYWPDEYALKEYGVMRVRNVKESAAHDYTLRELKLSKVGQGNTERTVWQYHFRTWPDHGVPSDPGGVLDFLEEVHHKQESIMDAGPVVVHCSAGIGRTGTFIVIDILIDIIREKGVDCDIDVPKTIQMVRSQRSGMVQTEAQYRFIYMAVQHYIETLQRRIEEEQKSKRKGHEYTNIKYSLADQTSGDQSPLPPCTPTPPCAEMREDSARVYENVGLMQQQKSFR
In turn, `Nc1nc(N2CC3(CCC3N)C2)cnc1Sc1cccc(Cl)c1Cl` (racemic) [Example 8, 2-(6-amino-5-((2,3-dichlorophenyl)thio)pyrazin-2-yl)-2-azaspiro[3.3]heptan-5-amine] gave an IC50 of 5360 nM.
To `Nc1nc(N2CCC3(CCC3N)CC2)cnc1Sc1cccc(Cl)c1Cl` (racemic) [Example 14, 7-(6-amino-5-((2,3-dichlorophenyl)thio)pyrazin-2-yl)-7-azaspiro[3.5]nonan-1-amine] belongs 56 nM.
Consider `Nc1nc(N2CCC3(CC2)CCC(F)(F)C3N)cnc1Sc1cccnc1C(F)(F)F` (racemic) [Example 82, racemic-8-(6-amino-5-((2-(trifluoromethyl)pyridin-3-yl)thio)pyrazin-2-yl)-2,2-difluoro-8-azaspiro[4.5]decan-1-amine], for which the IC50 was found to be 380 nM.
To `Nc1nc(N2CCC3(CC2)CCC(F)(F)[C@@H]3N)cnc1Sc1cccnc1C(F)(F)F` (racemic) [Example 83a, (R) and (S)-8-(6-amino-5-((2-(trifluoromethyl)pyridin-3-yl)thio)pyrazin-2-yl)-2,2-difluoro-8-azaspiro[4.5]decan-1-amine] belongs 882 nM; to `Nc1nc(N2CCC3(CC2)CCC(F)(F)[C@@H]3N)cnc1Sc1cccnc1C(F)(F)F` (racemic) [Example 83b, (R) and (S)-8-(6-amino-5-((2-(trifluoromethyl)pyridin-3-yl)thio)pyrazin-2-yl)-2,2-difluoro-8-azaspiro[4.5]decan-1-amine], 306 nM.
Then `C[C@H]1CCC2(CCN(c3cnc(Sc4cccnc4C(F)(F)F)c(N)n3)CC2)[C@@H]1N` (single isomer, unassigned) [Example 86a], with 10 nM; and `C[C@@H]1CCC2(CCN(c3cnc(Sc4cccnc4C(F)(F)F)c(N)n3)CC2)[C@@H]1N` (single isomer, unassigned) [Example 86b], with 10 nM; and `NC(=O)c1nc(Sc2cccnc2C(F)(F)F)c(N)nc1N1CCC2(CCCC2N)CC1` (stereo in doubt) [Example 21, (S)-5-amino-3-(1-amino-8-azaspiro[4.5]decan-8-yl)-6-((2-(trifluoromethyl)pyridin-3-yl)thio)pyrazine-2-carboxamide], with 10 nM.
To `Nc1nc(N2CCC3(CCCC3N)CC2)nnc1Sc1cccnc1C(F)(F)F` (stereo in doubt) [Example 23, (S)-8-(5-amino-6-((2-(trifluoromethyl)pyridin-3-yl)thio)-1,2,4-triazin-3-yl)-8-azaspiro[4.5]decan-1-amine] belongs 290 nM; to `Nc1nc(N2CCC3(CCCC3N)CC2)cnc1Sc1cccc(Cl)c1Cl` (centres unmarked) [Example 2], 25 nM; to `Nc1nc(N2CCC3(CCC[C@H]3N)CC2)cnc1Sc1cccc(Cl)c1Cl` [Example 3], 10 nM.
`Nc1nc(N2CCC3(CCCCC3N)CC2)cnc1Sc1cccc(Cl)c1Cl` (centres unmarked) [Example 4] yielded an IC50 of 32 nM.
Consider `Nc1nc(N2CCC3(CC2)OCC[C@H]3N)cnc1Sc1cccnc1C(F)(F)F` [Example 5], for which the midpoint of inhibition, the IC50, lay at 349 nM.
Then `Nc1nc(N2CCC3(CCCCC3N)CC2)cnc1-c1cccc(Cl)c1Cl` (centres unmarked) [Example 6], with 74 nM; and `Nc1nc(N2CCC3(CCCC3N)CC2)cnc1-c1cccc(Cl)c1Cl` (centres unmarked) [Example 7], with 73 nM.
`Nc1nc(N2CC3(CCC3N)C2)cnc1-c1cccc(Cl)c1Cl` (centres unmarked) [Example 9] registered an IC50 of 1110 nM.
Compound `Nc1cccc(Sc2ncc(N3CCC4(CC[C@@H]4N)CC3)nc2N)c1Cl` [Example 15] came in with an IC50 of 16 nM.
To `Nc1nc(N2CCC3(CCC3N)CC2)cnc1-c1cccc(Cl)c1Cl` (centres unmarked) [Example 16] belongs 145 nM.
Compound `Nc1nc(N2CCC3(CC2)C(N)CCS3(=O)=O)cnc1-c1cccc(Cl)c1Cl` (centres unmarked) [Example 18] returned an IC50 of 3550 nM.
Then `Nc1nc(N2CCC3(CC2)C(N)CCS3(=O)=O)cnc1Sc1cccc(Cl)c1Cl` (centres unmarked) [Example 19], with 4090 nM; and `Nc1nc(N2CCC3(CC[C@@H]3N)CC2)cnc1Sc1cccnc1C(F)(F)F` [Example 20, (S)-7-(6-amino-5-((2-(trifluoromethyl)pyridin-3-yl)thio)pyrazin-2-yl)-7-azaspiro[3.5]nonan-1-amine], with 38 nM.
To `NC(=O)c1nc(Sc2cccnc2C(F)(F)F)c(N)nc1N1CCC2(CC[C@@H]2N)CC1` [Example 22] belongs 53 nM; to `Nc1nc(N2CCC3(CCC[C@@H]3N)CC2)ncc1Sc1cccnc1C(F)(F)F` [Example 24, (S)-8-(4-amino-5-((2-(trifluoromethyl)pyridin-3-yl)thio)pyrimidin-2-yl)-8-azaspiro[4.5]decan-1-amine], 2780 nM; to `NC(=O)c1nc(Sc2ccnc(C(F)(F)F)c2Cl)c(N)nc1N1CCC2(CCC[C@H]2N)CC1` [Example 25, (R)-5-amino-3-(1-amino-8-azaspiro[4.5]decan-8-yl)-6-((3-chloro-2-(trifluoromethyl)pyridin-4-yl)thio)pyrazine-2-carboxamide], 58 nM.
To `Nc1nc(N2CCC3(CCC[C@H]3N)CC2)cnc1Sc1ccnc(N)c1Cl` [Example 26, (R)-8-(6-amino-5-((2-amino-3-chloropyridin-4-yl)thio)pyrazin-2-yl)-8-azaspiro[4.5]decan-1-amine] belongs 14 nM; to `Nc1nc(N2CCC3(CC[C@@H]3N)CC2)cnc1Sc1ccnc(N)c1Cl` [Example 27], 42 nM.
In turn, `Nc1nc(N2CCC3(CCC[C@H]3N)CC2)cnc1Sc1ccncc1Cl` [Example 28, (R)-8-(6-amino-5-((3-chloropyridin-4-yl)thio)pyrazin-2-yl)-8-azaspiro[4.5]decan-1-amine] came in with an IC50 of 23 nM.
`Nc1nc(N2CCC3(CCC[C@H]3N)CC2)cnc1Sc1cccnc1Cl` [Example 29, (R)-8-(6-amino-5-((2-chloropyridin-3-yl)thio)pyrazin-2-yl)-8-azaspiro[4.5]decan-1-amine] returned an IC50 of 15 nM.
To `Nc1nc(N2CCC3(CCC[C@H]3N)CC2)cnc1Sc1ccnc(Cl)c1Cl` [Example 30, (R)-8-(6-amino-5-((2,3-dichloropyridin-4-yl)thio)pyrazin-2-yl)-8-azaspiro[4.5]decan-1-amine] belongs 3 nM; to `Nc1nc(N2CCC3(CC[C@@H]3N)CC2)cnc1Sc1ccnc(Cl)c1Cl` [Example 31, (S)-7-(6-amino-5-((2,3-dichloropyridin-4-yl)thio)pyrazin-2-yl)-7-azaspiro[3.5]nonan-1-amine], 28 nM; to `Nc1cccc(Sc2ncc(N3CCC4(CCC[C@H]4N)CC3)nc2N)c1Cl` [Example 32, (R)-8-(6-amino-5-((3-amino-2-chlorophenyl)thio)pyrazin-2-yl)-8-azaspiro[4.5]decan-1-amine], 11 nM.
Then `Nc1nc(N2CCC3(CCC[C@H]3N)CC2)cnc1Sc1ccnc(F)c1Cl` [Example 33, (R)-8-(6-amino-5-((3-chloro-2-fluoropyridin-4-yl)thio)pyrazin-2-yl)-8-azaspiro[4.5]decan-1-amine], with 5 nM; and `NC1=NCCC12CCN(c1cnc(Sc3cccnc3C(F)(F)F)c(N)n1)CC2` [Example 34, 8-(6-amino-5-((2-(trifluoromethyl)pyridin-3-yl)thio)pyrazin-2-yl)-2,8-diazaspiro[4.5]dec-1-en-1-amine], with 32 nM.
To `Nc1nc(N2CCC3(CC2)OCCC3N)cnc1Sc1cccnc1C(F)(F)F` (centres unmarked) [Example 35] belongs 232 nM; to `NC(=O)c1cc(Sc2cccnc2C(F)(F)F)c(N)nc1N1CCC2(CCC[C@H]2N)CC1` [Example 39, (R)-6-amino-2-(1-amino-8-azaspiro[4.5]decan-8-yl)-5-((2-(trifluoromethyl)pyridin-3-yl)thio)nicotinamide], 118 nM.
As to `NC(=O)c1cccc(Sc2ncc(N3CCC4(CCC[C@H]4N)CC3)nc2N)c1Cl` [Example 40, (R)-3-((3-amino-5-(1-amino-8-azaspiro[4.5]decan-8-yl)pyrazin-2-yl)thio)-2-chlorobenzamide], half-maximal inhibition (IC50) required 16 nM.
In turn, `Nc1nc(N2CCC3(CC2)C[C@@H](O)C[C@H]3N)cnc1Sc1ccnc(N)c1Cl` [Example 41, (2R,4R)-4-amino-8-(6-amino-5-((2-amino-3-chloropyridin-4-yl)thio)pyrazin-2-yl)-8-azaspiro[4.5]decan-2-ol] registered an IC50 of 7 nM.
Then `Nc1nc(N2CCC3(CC2)C[C@@H](O)C[C@H]3N)cnc1Sc1cccnc1C(F)(F)F` [Example 42], with 7 nM; and `Nc1nc(N2CCC3(CC2)C[C@H](O)C[C@H]3N)cnc1Sc1cccnc1C(F)(F)F` [Example 43], with 6 nM; and `Nc1nc(N2CCC3(CC2)C[C@@H](O)C[C@@H]3N)cnc1Sc1cccnc1C(F)(F)F` [Example 44], with 135 nM.
For the compound `CO[C@@H]1C[C@@H](N)C2(CCN(c3cnc(Sc4ccnc(N)c4Cl)c(N)n3)CC2)C1` [Example 45], the IC50 was found to be 44 nM.
Then `CO[C@@H]1C[C@@H](N)C2(CCN(c3cnc(Sc4ccnc(Cl)c4Cl)c(N)n3)CC2)C1` [Example 46], with 38 nM; and `Nc1nc(N2CCC3(CC2)CC(F)(F)CC3N)cnc1Sc1cccnc1C(F)(F)F` (centres unmarked) [Example 47], with 21 nM; and `CO[C@H]1C[C@@H](N)C2(CCN(c3cnc(Sc4cccnc4C(F)(F)F)c(N)n3)CC2)C1` [Example 48], with 9 nM.
To `CN[C@@H]1C[C@H](O)CC12CCN(c1cnc(Sc3cccnc3C(F)(F)F)c(N)n1)CC2` [Example 49] belongs 234 nM; to `NC1=NC(=O)CC12CCN(c1cnc(Sc3cccnc3C(F)(F)F)c(N)n1)CC2` [Example 50], 610 nM.
Then `Nc1cc(Sc2ncc(N3CCC4(CCC[C@H]4N)CC3)nc2N)c(Cl)cn1` [Example 51], with 10 nM.

The values above are taken from patent US10336774B2, “N-azaspirocycloalkane substituted N-heteroaryl compounds and compositions for inhibiting the activity of SHP2” (NOVARTIS AG, priority 2014, dated 2019).
